{
  "source": "patent US20090227816A1",
  "about": "“Process for preparing polybrominated compounds” (BROMINE COMPOUNDS LTD., priority 2006, published 2009)",
  "type": "physicochemical",
  "procedure": "The solubility of Deca in bromine was determined as 2.64 g Deca in 100 g bromine at 20° C.",
  "data": [
    {"smiles": "Brc1c(Br)c(Br)c(Oc2c(Br)c(Br)c(Br)c(Br)c2Br)c(Br)c1Br", "note": "[Deca, decabromodiphenyl ether]", "values": [
      {"measurement": "solubility of Deca in bromine", "value": 2.64, "unit": "g Deca in 100 g bromine"}
    ]}
  ]
}
